According to patent publication US7642283B2, “Mitochrondrial permeability transition pore affinity labels and modulators” (Hoffmann-La Roche Inc., priority 2003, dated 2010):
Where two headings read alike, the source gives them in different places.

Columns and labels:
VDAC1 = molecular target: T1, VDAC1 (Rattus norvegicus, UniProt Q9Z2L0); test: Affinity labeling of rat mitochondria with the tritiated spiro compound, SDS-PAGE and fluorography; format: binding; settings: rat brain mitochondria; 10 nM radiolabel
T1 construct: from tissue; host or cells: Percoll-purified rat brain and liver mitochondria
Protocol: FIG. 6: Affinity-labeling of isolated rat brain (A) and liver (B) mitochondria. Mitochondrial preparations were incubated in the presence of 10 nM Spiro[cyclopentane-1,5′-[5H]dibenzo[a,d]cyclohepten]-2-one,10′,11′-t2-10′,11′-dihydro-3-methylene- for 15 min at 25° C. in presence or absence of various concentrations of Spiro[cyclopentane-1,5′-[5H]dibenzo[a,d]cyclohepten]-2-one,10′,11′-dihydro-3-methylene-(unlabeled). Samples were submitted to SDS-PAGE (see Experimental Procedures section for details) and fluorography. The fluorograms of the gels are shown. The molecular mass scale (kDa) is shown in the ordinate.
(§1) FIG. 8: (A) Effect of monobromobimano (MBBM) and phenylarsino oxide (PhAO) on VDAC1 labeling by Spiro[cyclopentane-1,5′-[5H]dibenzo[a,d]cyclohepten]-2-one,10′,11′-t2-10′,11′-dihydro-3-methylene- in rat brain mitochondria. Experimental conditions were as in the legend to FIG. 5. (B) Effect of various MPTP inhibitors, atractyloside (ATR) and DIDS on VDAC1 labeling by Spiro[cyclopentane-1,5′-[5H]dibenzo[a,d]cyclohepten]-2-one,10′,11′-t2-10′,11′-dihydro-3-methylene- in rat brain mitochondria. Mitochondria were exposed to DIDS for 5 min before rinsing for removal of the free agent and labeling with Spiro[cyclopentane-1,5′-[5H]dibenzo[a,d]cyclohepten]-2-one,10′,11′-t2-10′,11′-dihydro-3-methylene.
Percoll purified mitochondria (˜30 μg protein per sample) were incubated in the presence of 10 nM Spiro[cyclopentane-1,5′-[5H]dibenzo[a,d]cyclohepten]-2-one,10′,11′-t2-10′,11′-dihydro-3-methylene- in a final volume of 200 μl. After incubation for 15 min at 25° C., samples were centrifuged at 25000×g and the mitochondrial pellet rinsed twice with buffer. Samples were then solubilized in sample buffer containing β-mercaptoethanol (1 h at 37° C.) and subjected to SDS-polyacrylamide gel-electrophoresis (SDS-PAGE) on Tris-glycine Novex pre-cast mini-gels (12% monomer concentration, Invitrogen BV, The Netherlands). After Coomassie Blue staining, gels were processed for fluorography by soaking in Amplify™ (Amersham Biosciences), drying and exposing to X-ray BioMax MS film with BioMax MS intensifying screen (Kodak) at −80° C. for the appropriate time.
as §1, with “Effect” for “FIG. 8: (A) Effect”, “monobromobimano” for “monobromobimano (MBBM)”, “oxide” for “oxide (PhAO)”, “Example 12 (FIG. 8A).” for “the legend to FIG. 5. (B)”, “Spiro[cyclopentane-1,5′-[5H]dibenzo[a,d]cyclohepten]-2-one,10′,11′-t2-10′,11′-dihydro-3-methylene (FIG. 8B).” for “Spiro[cyclopentane-1,5′-[5H]dibenzo[a,d]cyclohepten]-2-one,10′,11′-t2-10′,11′-dihydro-3-methylene.”

MPTP [1] = system: T2, MPTP; test: Ca2+-induced swelling in deenergized liver mitochondria; format: biochemical; settings: n=2; 30 min after addition of 200 μM Ca2+; read-out: EC50 of MPTP inhibition in deenergized mitochondria
T2 construct: other: n=2; 30 min after addition of 200 μM Ca2+

MPTP [2] = molecular target: T3, MPTP (Rattus norvegicus, UniProt Q9Z2L0); test: Ca2+-retention capacity of rat brain mitochondria (Calcium Green-5N); format: biochemical
T3 construct: other: n=2; glutamate/malate; other: glutamate/malate; 20 min; mean±SEM; unit not given; other: 300 nM; relieved by 50 μM Ub5
Protocol: FIG. 4: (A) Effect of Spiro[cyclopentane-1,5′-[5H]dibenzo[a,d]cyclohepten]-2-one,10′,11′-dihydro-3-methylene- and CsA on Ca^2+-retention capacity of rat brain mitochondria. The incubation medium contained 0.2 M sucrose, 10 mM Tris-Mops, pH 7.4, 1 mM Pi-Tris, 5 μM EGTA and 5 mM glutamate/2.5 mM malate, buffered to pH 7.4 with Tris, containing 0.01% (w/v) bovine serum albumin and 1 μM Calcium Green-5N. The final volume was 2.5 ml. Trace (a) control, (b) 1 μM CsA, (c) 1 μM Spiro[cyclopentane-1,5′-[5H]dibenzo[a,d]cyclohepten]-2-one,10′,11′-dihydro-3-methylene- and (d) 1 μM CsA plus 1 μM Spiro[cyclopentane-1,5′-[5H]dibenzo[a,d]cyclohepten]-2-one,10′,11′-dihydro-3-methylene-. Each fluorescence spike corresponds to addition of 5 μM Ca^2+. (B) Comparison of Ca^2+-retention capacity in liver (a) and brain mitochondria (b).
Effect of Spiro[cyclopentane-1,5′-[5H]dibenzo[a,d]cyclohepten]-2-one,10′,11′-dihydro-3-methylene- and CsA on Ca^2+-retention capacity of rat brain mitochondria (FIG. 4). Measurement of extramitochondrial Ca^2+ was determined using a Perkin-Elmer LS-50B fluorimeter controlled by the FL WinLab computer program. […] The final volume was 2.5 ml and the cuvette was thermostated at 25° C. Brain mitochondria were then subjected to a train of 5 μM Ca^2+ additions (˜150 nmol mg protein^−1). Extramitochondrial Ca^2+ was monitored at excitation/emission wavelengths of 505-535. […] The Ca^2+-retention capacity in liver (a) and brain mitochondria (b) were also compared (FIG. 4B).
The effect of Spiro[cyclopentane-1,5′-[5H]dibenzo[a,d]cyclohepten]-2-one,10′,11′-dihydro-3-methylene- at inhibiting MPTP was also investigated in mitochondria isolated from rat forebrain. […] Due to the difficulties mentioned above, the effect of Spiro[cyclopentane-1,5′-[5H]dibenzo[a,d]cyclohepten]-2-one,10′,11′-dihydro-3-methylene- on MPTP in brain mitochondria was more accurately investigated by subjecting mitochondria isolated from rat forebrain to a series of Ca^2+ pulses (5 μM, ˜150 nmol mg protein^−1) and by monitoring extramitochondrial Ca^2+ or using fluororescent probes.

[3] = system: mitochondrial respiration; test: Mitochondrial respiration (oxygen consumption); format: biochemical; settings: at concentrations completely blocking MPTP
Protocol: Isolated liver mitochondria (˜0.5 mg protein ml^−1) were incubated in a batch mode in the presence of 20 nM [^3H]TPP ([^3H]Tetraphenylphosphonium ([^3H]TPP, 24-29 Ci/mmol) from Amersham Biosciences, Switzerland) for 15 min at 25° C. Aliquots (100 μl) of the mixture were then distributed into 96-well plates containing 100 μl of the test compound and the incubation prolonged for 15 min at 25° C. Samples were then filtered through 0.3% (v/v) polyethyleneimmine-treated GF/B glass fiber filters using a 96-channel cell harvester and the filters washed twice with 1 ml of buffer. Fifty μl of MICROSCINT 40 (Packard) were then added to each well, before counting for radioactivity in a TopCount scintillation counter (Packard). Non-specific uptake was determined in the presence of 1 mM unlabeled TPP or 1 μM carbonylcianide-p-trifluoromethoxyphenyl hydrazone (FCCP). Mitochondrial oxygen consumption was measured polarographically at 25° C. using a Clark-type electrode.
Compounds found to inhibit MPTP where then counter-screened using uptake of the potentiometric probe [^3H]-TPP (Hoek, J. B., Nicholls, D. G. & Williamson, J. R. (1980) J. Biol. Chem. 255, 1458-1564) for determining in a semi-quantitative, but rapid way whether they interfered with mitochondrial respiration (e.g. protonophores). […]

Cyp-D = Cyp-D (Homo sapiens, UniProt P30405); test: Cyp-D peptidyl prolyl cis-trans isomerase enzymatic activity; format: biochemical; settings: at concentrations completely blocking MPTP
MPTP (Rattus norvegicus) = molecular target: T4, MPTP (Rattus norvegicus); test: Ca2+-induced swelling (MPTP) in rat liver mitochondria energised with succinate; format: biochemical; settings: succinate 5 mM + 2 μM rotenone; 80 μM Ca2+; ΔA540 20 min after CaCl2
T4 construct: other: n=2; glutamate/malate; other: glutamate/malate; 20 min; mean±SEM; unit not given; other: 300 nM; relieved by 50 μM Ub5
Protocol: Ca^2+-induced swelling (sucrose permeability) in energized mitochondria was assayed at 25° C. in 96 well-plates by measuring changes in absorbance at 540 nm by means of a […]ax 250 spectrophometer controlled by the SOFTmax PRO™ software (Molecular Devices, Switzerland). The incubation medium contained 0.2 M sucrose, 10 mM Tris-Mops, pH 7.4, 1 mM Pi-Tris, 5 μM EGTA. Succinate (5 mM, in the presence of 2 μM rotenone) or 5 mM glutamate/2.5 mM malate, buffered to pH 7.4 with Tris, were used as respiratory substrates. After a short (˜5 min) preincubation in presence or absence of test compounds, mitochondrial swelling was induced by the addition of 20 μl CaCl2 at final concentrations ranging from 40 to 80 μM, depending on respiratory substrates and Ca^2+ sensitivity of the mitochondrial preparation. The final incubation volume was 0.2 ml and the concentration of mitochondria was ˜0.5 mg mitochondrial protein ml^−1. Swelling kinetics was followed for up to 30 min at 25° C. Absorbance readings were taken every 12 sec and the plate was shaken for 3 s between readings to ensure oxygen diffusion during the experiment and to avoid sedimentation of the mitochondria.
The incubation medium contained 0.2 M sucrose, 10 mM Tris-Mops, pH 7.4, 1 mM Pi-Tris, 5 μM EGTA.

MPTP [4] = test: Ca2+-induced depolarisation (membrane potential, Rhodamine-123) of rat brain mitochondria; format: biochemical; settings: 50 μM Ub5 alone
Protocol: (B) Ca^2+-induced depolarisation of rat brain mitochondria. The medium used was as in the legend to FIG. 4, except that 0.5 μM Rhodamine-123 was added instead of Calcium Green-5N, and MPTP was induced by addition of 20 μM Ca^2+. Trace a, control (Ca^2+ alone), b, 300 nM Spiro[cyclopentane-1,5′-[5H]dibenzo[a,d]cyclohepten]-2-one,10′,11′-dihydro-3-methylene-, c, 300 nM Spiro[cyclopentane-1,5′-[5H]dibenzo[a,d]cyclohepten]-2-one,10′,11′-dihydro-3-methylene- and 50 μM Ub5.
The effect of Spiro[cyclopentane-1,5′-[5H]dibenzo[a,d]cyclohepten]-2-one,10′,11′-dihydro-3-methylene- at inhibiting MPTP was also investigated in mitochondria isolated from rat forebrain. […] Due to the difficulties mentioned above, the effect of Spiro[cyclopentane-1,5′-[5H]dibenzo[a,d]cyclohepten]-2-one,10′,11′-dihydro-3-methylene- on MPTP in brain mitochondria was more accurately investigated by subjecting mitochondria isolated from rat forebrain to a series of Ca^2+ pulses (5 μM, ˜150 nmol mg protein^−1) and by monitoring extramitochondrial Ca^2+ or using fluororescent probes. […] Virtually identical results were obtained from experiments where Δψm was monitored after a series of Ca^2+ additions (5 μM each). Each Ca^2+ additions caused a reversible decreases in Δψm, until MPTP opening completely collapsed Δψm and no further fluorescence increase could observed after addition of the protonophore FCCP.

[5] = Ca2+ pulses, rat brain mitochondria

T4 sequence (Q9Z2L0 2-283): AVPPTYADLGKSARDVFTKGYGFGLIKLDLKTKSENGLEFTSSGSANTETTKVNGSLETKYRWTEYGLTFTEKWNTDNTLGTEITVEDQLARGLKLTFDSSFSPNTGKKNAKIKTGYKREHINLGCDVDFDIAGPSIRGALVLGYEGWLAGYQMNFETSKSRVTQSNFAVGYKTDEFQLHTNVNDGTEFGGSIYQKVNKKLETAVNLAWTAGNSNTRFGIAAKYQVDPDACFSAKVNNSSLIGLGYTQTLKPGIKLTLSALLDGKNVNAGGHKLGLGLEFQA
T3 sequence (Q9Z2L0 2-283): as above
T1 sequence (Q9Z2L0 whole entry): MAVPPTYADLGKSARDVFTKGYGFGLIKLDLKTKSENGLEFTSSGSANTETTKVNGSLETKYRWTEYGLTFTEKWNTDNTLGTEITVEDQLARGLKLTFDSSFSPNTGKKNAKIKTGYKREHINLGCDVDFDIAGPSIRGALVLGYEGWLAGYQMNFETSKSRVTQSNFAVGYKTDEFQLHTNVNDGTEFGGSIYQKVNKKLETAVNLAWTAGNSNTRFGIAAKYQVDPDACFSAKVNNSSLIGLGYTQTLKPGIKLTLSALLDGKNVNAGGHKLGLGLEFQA
Chain of Cyp-D (P30405 30-207): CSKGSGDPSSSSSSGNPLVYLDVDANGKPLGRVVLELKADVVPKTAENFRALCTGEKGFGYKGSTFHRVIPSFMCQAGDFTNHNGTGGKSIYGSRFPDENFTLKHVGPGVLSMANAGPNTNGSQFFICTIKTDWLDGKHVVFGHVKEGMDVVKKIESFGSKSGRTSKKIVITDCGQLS

Row | SMILES | Effect on VDAC1 labeling (incorporation of radioactivity) by the tritiated spiro compound (VDAC1) | Additive effect when combined with the spiro compound (Example 2) (MPTP [2]; [5]) | EC50 (MPTP (Rattus norvegicus)) | also measured
1 | CCN(CC)CC1COc2ccc(Br)cc2C1=O (stereo not shown) [6-bromo-3-diethylaminomethyl-chroman-4-one] | inhibited |  |  | 
2 | C=C1COc2ccc(Br)cc2C1=O [6-bromo-3-methylene-chroman-4-one] | inhibited | no additive effect |  | EC50 (MPTP [1]): 2.8 µM; Inhibition of mitochondrial respiration (basal, ADP-induced and uncoupled) [3]: did not inhibit; Inhibition of Cyp-D peptidyl prolyl cis-trans isomerase activity (Cyp-D): did not inhibit
3 | C=C1[C@@H]2CC[C@H]3[C@]4(C)C[C@H](O[C@@H]5O[C@H](CO)[C@@H](OS(=O)(=O)O)[C@H](OS(=O)(=O)O)[C@H]5OC(=O)CC(C)C)C[C@@H](C(=O)O)[C@H]4CC[C@]3(C2)[C@H]1O [ATR, atractyloside] | did not affect |  |  | 
4 | CO[C@H](C/C=C\C=C\CC/C=C/C[C@H](C)/C=C/C(=C\C(=O)O)CC(=O)O)/C(C)=C\C=C(/C)C(=O)O [Bongkrekic acid] | did not affect | additive | 11.5 µM | 
5 | O=S(=O)(O)c1cc(N=C=S)ccc1C=Cc1ccc(N=C=S)cc1S(=O)(=O)O [DIDS, 4,4′-diisothiocyanatostilbene-2,2′-disulfonic acid] | appeared to inhibit |  |  | 
6 | CN1CCN(CCCN2c3ccccc3Sc3ccc(C(F)(F)F)cc32)CC1 [Trifluoroperazine] | did not affect |  | 9.4 µM | Additive effect when combined with the spiro compound (Example 2) (MPTP [2]): additive
7 | COC1=C(OC)C(=O)C(C/C=C(\C)CC/C=C(\C)CC/C=C(\C)CC/C=C(\C)CCC=C(C)C)=C(C)C1=O [Ub5, ubiquinone5, reference compound] |  |  |  | Effect of Ub5 alone (MPTP [4]): no effect
8 | COC1=C(OC)C(=O)C(C)=CC1=O [Ubiquinone0] | Inhibition | no such additive effect | 23.2 µM | EC50 (MPTP [1]): 4.9 µM
